Patent US9266839B2, “Trifluoromethyl pyrazolyl guanidine F1F0-ATPase inhibitors and therapeutic uses thereof” (Lycera Corporation, priority 2013, dated 2016)

Columns and labels:
[1] = tested on: Ramos cells; experiment: Cytotoxicity in Ramos cells; assay type: cell-based; conditions: Homo sapiens; cytotoxicity in Ramos cells; read-out: Ramos Cell EC50
Procedure: (§1) Compounds in Table 5 below were tested for activity against F1F0-ATPase by measuring the ability of the compounds to inhibit ATP synthesis. In addition, the compounds were assessed for cytotoxicity in Ramos cells. Inhibition of F1F0-ATPase activity in synthesizing ATP and cytotoxicity in Ramos cells were measured according to the procedures described in K. M. Johnson et al. Chemistry & Biology 2005, 12, 485-496.
(§2) The activity of compound 3-chloro-N-(((3-chloro-5-fluorophenyl)amino)((5-(trifluoromethyl)-1H-pyrazol-3-yl)amino)methylene)benzamide towards F1F0-ATPase and Ramos cells was evaluated by performing multiple times the assay procedures described in Part I. In particular, activity against F1F0-ATPase was evaluated by measuring the ability of the compound to inhibit ATP synthesis in twelve independent experiments. Cytotoxicity towards Ramos cells was measured in thirteen independent experiments. Consistent with the procedure in Part I, the compound was dissolved in dimethylsulfoxide to form a solution that was applied to F1F0-ATPase or Ramos cells, and the assays were performed according to procedures described in K. M. Johnson et al. Chemistry & Biology 2005, 12, 485-496.
(§3) Similarly, EC50 values (for cytotoxicity towards Ramos cells) from multiple replications of the experimental procedure were averaged. The mean EC50 value for 3-chloro-N-(((3-chloro-5-fluorophenyl)amino)((5-(trifluoromethyl)-1H-pyrazol-3-yl)amino)methylene)benzamide for cytotoxicity towards Ramos cells was determined to be 59±6 nM.

[2] = Cytotoxicity in Ramos cells; assay type: cell-based; conditions: human, Ramos cells; mean of thirteen independent experiments; compound dissolved in dimethylsulfoxide; read-out: mean EC50 for cytotoxicity towards Ramos cells
Procedure: as §1, §2, §3

[3] = target: Cytochrome P450 2D6 (Homo sapiens (Human), UniProt P10635); experiment: Inhibition of Cytochrome P450 2D6 in human liver microsomes; assay type: in vitro ADME; conditions: 30 minutes incubation with test compound, substrate dextromethorphan 10 μM, read-out: CYP2D6 IC50
Procedure: Master solutions were prepared containing human liver microsomes (Gibco, 0.2 mg/mL) and MgCl2 (5 mM) in potassium phosphate buffer (10 mM). To aliquots (169 μL) of the microsome solution was added test compound in acetonitrile (1 μL) and DMSO (1 μL) to provide final test compound concentrations of 0, 0.005, 0.05, 0.25, 1, 5, 10, and 25 μM.
NADPH (10 mM) in ultra-pure water (20 μL) was added, and this mixture was incubated at 37° C. for 30 minutes. The enzyme reaction then was initiated by the addition of enzyme substrate (dextromethorphan) dissolved in 1 μL of acetonitrile and 9 μL of ultra-pure water. The final substrate concentration was 10 μM.
After 20 minutes, the incubation mixture was diluted with 3 volumes of cold methanol containing imipramine (200 nM), labetalol (200 nM), and ketoprofen (2 μM) as internal standards. Samples were centrifuged at 16,000 g for 10 minutes, then an aliquot of the supernatant (200 μL) was removed and analyzed by LC/MS/MS.
LC/MS/MS analyses were performed in duplicate using a Shimadzu HPLC and an API 4000 mass spectrometer. Liquid chromatography employed a Phenomenex C18, 5 μm, 50×2 mm column fitted with a guard column. Solvent A was acetonitrile containing 0.1% v/v formic acid. Solvent B was water containing 0.1% v/v formic acid. […]
The formation of metabolites was evaluated by peak area, and data were analyzed using Prism 5.0 software (GraphPad). […]

Sequence of Cytochrome P450 2D6 (P10635 whole entry): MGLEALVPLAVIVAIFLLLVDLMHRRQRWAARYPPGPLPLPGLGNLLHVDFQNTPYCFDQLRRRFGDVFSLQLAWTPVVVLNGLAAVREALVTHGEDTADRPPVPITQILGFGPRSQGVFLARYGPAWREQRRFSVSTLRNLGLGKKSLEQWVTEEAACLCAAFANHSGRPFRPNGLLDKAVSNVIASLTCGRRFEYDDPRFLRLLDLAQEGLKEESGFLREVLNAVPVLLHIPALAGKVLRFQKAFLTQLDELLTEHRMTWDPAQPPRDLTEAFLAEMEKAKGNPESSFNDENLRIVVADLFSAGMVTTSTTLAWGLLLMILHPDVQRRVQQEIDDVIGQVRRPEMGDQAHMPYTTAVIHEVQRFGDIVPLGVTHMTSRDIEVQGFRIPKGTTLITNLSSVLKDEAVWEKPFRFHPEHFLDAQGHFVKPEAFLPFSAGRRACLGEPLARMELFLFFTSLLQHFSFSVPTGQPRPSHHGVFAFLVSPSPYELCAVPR

Row | IC50 [3] [nM] | Compound | EC50 [1] [nM] | EC50 [2] [nM]
1 | 3200 | O=C(/N=C(/Nc1cc(F)cc(Cl)c1)Nc1cc(C(F)(F)F)[nH]n1)c1cccc(Cl)c1 [Compound 1, 3-chloro-N-(((3-chloro-5-fluorophenyl)amino)((5-(trifluoromethyl)-1H-pyrazol-3-yl)amino)methylene)benzamide] | 50 | 59 ± 6
2 |  | O=C(/N=C(/Nc1cc(F)cc(Cl)c1)Nc1cc(C(F)F)[nH]n1)c1ccc(Cl)cc1 [Compound 3] | 1840 | 
3 | 1100 | O=C(/N=C(/Nc1cccc(Cl)c1)Nc1cc(C(F)(F)F)[nH]n1)c1cccc(Cl)c1 [Compound 2, 3-chloro-N-(((3-chlorophenyl)amino)((5-(trifluoromethyl)-1H-pyrazol-3-yl)amino)methylene)benzamide, reference compound] | 100 | 
4 |  | O=C(/N=C(/Nc1cc(F)cc(Cl)c1)Nc1cc(C(F)(F)F)[nH]n1)c1ccc(Cl)cc1 [Compound 4] | 120 | 
